# Data from BindingDB's records for doi:10.1158/1535-7163.MCT-06-0397 (Loma Linda University, 2007).
# Biological target: Serine/threonine-protein kinase pim-1 (Homo sapiens, UniProt P11309)
# Assay: Solid-Phase ELISA Kinase Assay
# Conditions: pH 7; 30 °C
# Procedure: The 96-well flat-bottomed plates were coated with recombinant GST-BAD. After the plates were blocked, the reaction buffer containing test compound and recombinant GST-PIM1 kinase were added to each well. Phosphorylated GST-BAD was detected by an ELISA reaction. The level of phosphorylated GST-BAD present was proportional to the absorbance at 450 nm. Curve fitting and enzyme analyses were done using GraphPad Prism version 4.00 (GraphPad Software, San Diego, CA).
# Sequence of Serine/threonine-protein kinase pim-1 (P11309 whole entry): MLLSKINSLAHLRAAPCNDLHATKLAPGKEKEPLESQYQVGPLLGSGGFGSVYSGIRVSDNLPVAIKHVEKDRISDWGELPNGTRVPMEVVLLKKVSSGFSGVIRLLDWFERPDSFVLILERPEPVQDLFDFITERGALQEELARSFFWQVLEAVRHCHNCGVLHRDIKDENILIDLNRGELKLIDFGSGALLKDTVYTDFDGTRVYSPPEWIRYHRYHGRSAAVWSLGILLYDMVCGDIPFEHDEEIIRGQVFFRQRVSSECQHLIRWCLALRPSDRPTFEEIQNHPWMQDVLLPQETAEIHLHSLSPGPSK
row,IC50,SMILES
1,22 µM,O=c1cc(-c2ccc(O)cc2)oc2c(O)c(O)ccc12
2,107 µM,O=C1C[C@@H](c2ccccc2)Oc2cc(O)cc(O)c21
3,1.3 µM,O=c1c(O)c(-c2ccc(O)cc2)oc2cc(O)cc(O)c12
4,2.7 µM,"O=c1c(O)c(-c2ccc(O)cc2O)oc2cc(O)cc(O)c12 [2-(2,4-dihydroxyphenyl)-3,5,7-trihydroxychromen-4-one]"
5,8.3 µM,"O=c1c(O)c(-c2ccc(O)cc2O)oc2ccc(O)cc12 [2-(2,4-dihydroxyphenyl)-3,6-dihydroxy-4H-chromen-4-one]"
6,0.85 µM,"O=c1c(O)c(-c2ccc(O)c(O)c2)oc2cc(O)ccc12 [2-(3,4-dihydroxyphenyl)-3,7-dihydroxy-chromen-4-one]"
7,0.98 µM,"O=c1c(O)c(-c2ccc(O)cc2)oc2cc(O)ccc12 [3,7-dihydroxy-2-(4-hydroxyphenyl)-4H-chromen-4-one]"
8,4.6 µM,"O=c1c(O)c(-c2ccccc2)oc2cc(O)ccc12 [3,7-dihydroxy-2-phenyl-4H-chromen-4-one]"
9,15 µM,"O=c1cc(-c2ccccc2)oc2cc(O)cc(O)c12 [5,7-dihydroxy-2-phenyl-4H-chromen-4-one]"
10,14 µM,"O=c1cc(-c2ccccc2)oc2cc(O)ccc12 [7-Hydroxy-flavone, 5a]"
11,7.8 µM,"O=c1cc(-c2cc(O)c(O)c(O)c2)oc2cc(O)ccc12 [7-hydroxy-2-(3,4,5-trihydroxyphenyl)-4H-chromen-4-one]"
12,4.52 µM,O=c1cc(-c2cccc(O)c2)oc2cc(O)ccc12 [7-hydroxy-2-(3-hydroxyphenyl)-4H-chromen-4-one]
13,60.2 µM,"O=C1C[C@H](c2ccccc2)Oc2cc(O)cc(O)c21 [(2R)-5,7-dihydroxy-2-phenyl-3,4-dihydro-2H-1-benzopyran-4-one]"
14,12.5 µM,"CC(C)=CCc1c(O)cc(O)c2c1O[C@H](c1ccccc1)CC2=O [(2S)-5,7-dihydroxy-8-(3-methylbut-2-en-1-yl)-2-phenyl-3,4-dihydro-2H-1-benzopyran-4-one]"

row,SMILES,IC50
1,O=c1c(O)c(-c2cc(O)c(O)c(O)c2)oc2cc(O)cc(O)c12,0.78 µM
2,O=c1c(O)c(-c2ccc(O)c(O)c2)oc2c(O)c(O)cc(O)c12,0.43 µM
3,"O=c1cc(-c2ccc(O)c(O)c2)oc2cc(O)cc(O)c12 [2-(3,4-dihydroxyphenyl)-5,7-dihydroxy-4H-chromen-4-one]",1.6 µM
4,"O=c1cc(-c2ccc(O)cc2)oc2cc(O)cc(O)c12 [Naringenin, 18]",0.94 µM
